The source of these data is ChEMBL document CHEMBL1681739, “KDR inhibitor with the intramolecular non-bonded interaction: conformation-activity relationships of novel indole-3-carboxamide derivatives” (Bioorg Med Chem Lett, 2011).

In one assay the target is T1, Vascular endothelial growth factor receptor 2 (Homo sapiens, UniProt P35968). Nature of the assay: Inhibition of KDR assessed as phosphorylation level of substrate at 10 uM by ELISA. A general note: An ELISA detects its analyte on a solid surface through an enzyme-linked reagent.
T1 sequence (P35968 whole entry): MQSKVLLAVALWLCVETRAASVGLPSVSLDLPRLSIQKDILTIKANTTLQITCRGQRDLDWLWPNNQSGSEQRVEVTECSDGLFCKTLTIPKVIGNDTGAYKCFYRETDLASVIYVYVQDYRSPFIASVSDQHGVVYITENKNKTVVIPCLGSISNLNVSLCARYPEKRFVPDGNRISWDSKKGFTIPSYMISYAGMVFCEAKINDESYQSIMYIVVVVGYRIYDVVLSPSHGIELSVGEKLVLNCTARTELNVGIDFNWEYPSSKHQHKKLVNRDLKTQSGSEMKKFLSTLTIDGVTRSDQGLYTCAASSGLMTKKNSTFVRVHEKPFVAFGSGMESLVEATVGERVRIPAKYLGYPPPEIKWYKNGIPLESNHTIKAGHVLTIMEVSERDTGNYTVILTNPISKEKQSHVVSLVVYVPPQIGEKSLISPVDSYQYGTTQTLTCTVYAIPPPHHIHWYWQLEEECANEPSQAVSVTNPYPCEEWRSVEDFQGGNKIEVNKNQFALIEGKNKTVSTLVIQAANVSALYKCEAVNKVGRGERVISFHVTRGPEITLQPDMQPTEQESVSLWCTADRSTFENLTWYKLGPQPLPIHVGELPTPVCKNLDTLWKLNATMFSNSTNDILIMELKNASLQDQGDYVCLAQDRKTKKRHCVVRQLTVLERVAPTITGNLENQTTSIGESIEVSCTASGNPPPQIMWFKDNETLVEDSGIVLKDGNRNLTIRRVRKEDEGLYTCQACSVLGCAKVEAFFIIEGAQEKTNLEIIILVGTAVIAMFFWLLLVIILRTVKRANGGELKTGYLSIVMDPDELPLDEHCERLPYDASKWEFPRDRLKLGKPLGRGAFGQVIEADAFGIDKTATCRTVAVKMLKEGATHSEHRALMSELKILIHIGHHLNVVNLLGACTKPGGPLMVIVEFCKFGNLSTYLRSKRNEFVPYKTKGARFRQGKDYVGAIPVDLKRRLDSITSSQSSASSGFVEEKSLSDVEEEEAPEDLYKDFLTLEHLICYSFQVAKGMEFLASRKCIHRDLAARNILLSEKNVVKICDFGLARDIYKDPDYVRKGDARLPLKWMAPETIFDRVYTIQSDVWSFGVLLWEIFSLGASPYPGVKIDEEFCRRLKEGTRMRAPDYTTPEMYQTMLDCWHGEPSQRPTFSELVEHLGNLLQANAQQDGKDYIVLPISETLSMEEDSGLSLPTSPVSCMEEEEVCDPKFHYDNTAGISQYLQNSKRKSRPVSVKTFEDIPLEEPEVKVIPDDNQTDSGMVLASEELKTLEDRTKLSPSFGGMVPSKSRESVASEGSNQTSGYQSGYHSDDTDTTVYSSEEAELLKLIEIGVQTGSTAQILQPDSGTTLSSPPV
In general, inhibition refers to the percentage by which the read-out fell short of the control. As to `O=C(Nc1cccc(Cl)c1)c1c[nH]c2cccc(SCc3ccncc3)c12`, the inhibition stood at 35%.

With `O=C(Nc1cc2ccccc2cn1)c1c[nH]c2cccc(SCc3ccncc3)c12`, the inhibition turned out to be 74%.

As to `O=C(Nc1cccc(Cl)c1)c1c[nH]c2cccc(NCc3ccncc3)c12`, the inhibition was 18%.

For the molecule `O=C(Nc1ccc2c(c1)CCC2)c1c[nH]c2cccc(OCc3ccncc3)c12`, the inhibition is 19%.

In the case of `O=C(Nc1ccc(OC(F)(F)F)cc1)c1c[nH]c2cccc(NCc3ccncc3)c12`, the inhibition stood at 14%.

Take `Cc1cc(C)cc(NC(=O)c2c[nH]c3cccc(NCc4ccncc4)c23)c1`: the inhibition was determined as 19%.

On to `O=C(Nc1ccc(Cl)cc1)c1c[nH]c2cccc(SCc3ccncc3)c12`, for which the inhibition worked out at 34%.

In the case of `O=C(Nc1cc2ccccc2cn1)c1c[nH]c2cccc(NCc3ccncc3)c12`, the inhibition stood at 55%.

Consider `Cc1cc(C)cc(NC(=O)c2c[nH]c3cccc(SCc4ccncc4)c23)c1`, for which the inhibition stood at 35%.

Consider `CC(C)(C)c1ccc(NC(=O)c2c[nH]c3cccc(NCc4ccncc4)c23)cc1`, for which the inhibition came to 25%.

As to `Cc1cccc(NC(=O)c2c[nH]c3cccc(SCc4ccncc4)c23)c1`, the inhibition was found to be 52%.

In the case of `O=C(Nc1cccc(C(F)(F)F)c1)c1c[nH]c2cccc(NCc3ccncc3)c12`, the inhibition stood at 25%.

On to `O=C(Nc1ccc(Cl)cc1)c1c[nH]c2cccc(OCc3ccncc3)c12`, for which the inhibition was determined as 9%.

For the molecule `O=C(Nc1cccc(C(F)(F)F)c1)c1c[nH]c2cccc(OCc3ccncc3)c12`, the inhibition came out at 4%.

With `O=C(Nc1ccc2c(c1)CCC2)c1c[nH]c2cccc(NCc3ccncc3)c12`, the inhibition was determined as 27%.

For `O=C(Nc1ccc(Cl)cc1)c1c[nH]c2cccc(NCc3ccncc3)c12`, the inhibition was found to be 23%.

Take `O=C(Nc1ccc2c(c1)CCC2)c1c[nH]c2cccc(SCc3ccncc3)c12`: the inhibition came out at 59%.

Regarding `O=C(Nc1ccc(OC(F)(F)F)cc1)c1c[nH]c2cccc(SCc3ccncc3)c12`, the inhibition amounted to 35%.

Consider `CC(C)(C)c1ccc(NC(=O)c2c[nH]c3cccc(SCc4ccncc4)c23)cc1`, for which the inhibition worked out at 51%.

On to `O=C(Nc1cccc(C(F)(F)F)c1)c1c[nH]c2cccc(SCc3ccncc3)c12`, for which the inhibition worked out at 92%.

Consider `Cc1cccc(NC(=O)c2c[nH]c3cccc(NCc4ccncc4)c23)c1`, for which the inhibition was found to be 18%.

For `CC(C)(C)c1ccc(NC(=O)c2c[nH]c3cccc(OCc4ccncc4)c23)cc1`, the inhibition amounted to 6%.

The next assay has as its target T1, Vascular endothelial growth factor receptor 2. Briefly: Inhibition of KDR assessed as phosphorylation level of substrate by ELISA.
In general, IC50 refers to the concentration that gives 50% inhibition. Turning to `O=C(Nc1cccc(C(F)(F)F)c1)c1c[nH]c2cccc(SCc3ccncc3)c12`, the IC50 was 309 nM.
